In the NIST ThermoML archive (doi:10.1021/acs.jced.6b00350):
Where “and” joins values, the source holds several entries; their conditions need not be identical. Identical values can stand only once.

Conditions: Liquid, Hot wire method

FC(F)CC(F)(F)F [1,1,1,3,3-pentafluoropropane]
Conditions	thermal conductivity
283.24 K, 29153 kPa	0.1046 W/m/K
283.25 K, 29157 kPa	0.1041 W/m/K
283.29 K, 22330 kPa	0.1022 W/m/K
283.3 K, 22338 kPa	0.102 W/m/K
283.31 K, 16102 kPa	0.09978 W/m/K
283.34 K, 10490 kPa	0.09781 W/m/K
283.35 K, 10482 kPa	0.09779 W/m/K
283.39 K, 5078 kPa	0.09561 W/m/K
283.39 K, 5084 kPa	0.09578 W/m/K
283.4 K, 124 kPa	0.09369 W/m/K
297.28 K, 238 kPa	0.08846 W/m/K and 0.0884 W/m/K
297.3 K, 6681 kPa	0.09147 W/m/K
297.31 K, 6682 kPa	0.09132 W/m/K
297.33 K, 12567 kPa	0.09379 W/m/K
297.33 K, 12571 kPa	0.09396 W/m/K
297.36 K, 12582 kPa	0.09405 W/m/K
297.37 K, 12586 kPa	0.09376 W/m/K
297.49 K, 19332 kPa	0.09652 W/m/K
297.49 K, 19337 kPa	0.09665 W/m/K
297.69 K, 229 kPa	0.08847 W/m/K
297.69 K, 239 kPa	0.0881 W/m/K
297.7 K, 6677 kPa	0.0909 W/m/K and 0.09107 W/m/K
297.72 K, 12571 kPa	0.09392 W/m/K
297.73 K, 12572 kPa	0.0939 W/m/K
297.75 K, 12582 kPa	0.09397 W/m/K
297.75 K, 12583 kPa	0.09395 W/m/K
297.86 K, 19322 kPa	0.09664 W/m/K
297.86 K, 19340 kPa	0.09658 W/m/K
298.13 K, 233 kPa	0.08778 W/m/K
298.14 K, 234 kPa	0.08789 W/m/K
298.14 K, 6680 kPa	0.09232 W/m/K and 0.09104 W/m/K
298.14 K, 12568 kPa	0.09369 W/m/K
298.14 K, 12571 kPa	0.09358 W/m/K
298.17 K, 12583 kPa	0.09365 W/m/K
298.18 K, 12574 kPa	0.09352 W/m/K
298.26 K, 19324 kPa	0.09657 W/m/K
298.27 K, 19334 kPa	0.09654 W/m/K
298.58 K, 12568 kPa	0.09385 W/m/K
298.59 K, 12563 kPa	0.09379 W/m/K
298.6 K, 6668 kPa	0.09111 W/m/K
298.6 K, 6673 kPa	0.0911 W/m/K
298.61 K, 230 kPa	0.08804 W/m/K
298.61 K, 234 kPa	0.08787 W/m/K
298.62 K, 12577 kPa	0.09374 W/m/K
298.62 K, 12578 kPa	0.09384 W/m/K
298.7 K, 19323 kPa	0.09665 W/m/K
298.71 K, 19329 kPa	0.09658 W/m/K
298.72 K, 26079 kPa	0.09945 W/m/K
298.72 K, 26080 kPa	0.09952 W/m/K
298.73 K, 33915 kPa	0.1022 W/m/K
298.73 K, 33916 kPa	0.1019 W/m/K
298.74 K, 41639 kPa	0.1043 W/m/K
298.75 K, 41635 kPa	0.1043 W/m/K
299.08 K, 12562 kPa	0.09373 W/m/K
299.09 K, 12561 kPa	0.09382 W/m/K
299.09 K, 26077 kPa	0.09835 W/m/K
299.09 K, 26079 kPa	0.09892 W/m/K
299.09 K, 33913 kPa	0.1011 W/m/K
299.09 K, 33914 kPa	0.1013 W/m/K
299.09 K, 41634 kPa	0.1044 W/m/K
299.09 K, 41635 kPa	0.1044 W/m/K
299.1 K, 6675 kPa	0.09125 W/m/K
299.11 K, 6673 kPa	0.0912 W/m/K
299.11 K, 12580 kPa	0.0938 W/m/K
299.12 K, 12583 kPa	0.09382 W/m/K
299.14 K, 227 kPa	0.08804 W/m/K
299.14 K, 238 kPa	0.08799 W/m/K
299.19 K, 19316 kPa	0.09651 W/m/K
299.19 K, 19328 kPa	0.09648 W/m/K
299.48 K, 41634 kPa	0.1043 W/m/K
299.49 K, 33910 kPa	0.1012 W/m/K
299.49 K, 33912 kPa	0.1011 W/m/K
299.49 K, 41635 kPa	0.1042 W/m/K
299.5 K, 26073 kPa	0.09896 W/m/K
299.5 K, 26076 kPa	0.099 W/m/K
299.89 K, 41632 kPa	0.1042 W/m/K
299.9 K, 41629 kPa	0.1042 W/m/K
299.91 K, 33908 kPa	0.1013 W/m/K
299.92 K, 33910 kPa	0.1013 W/m/K
299.93 K, 26071 kPa	0.09862 W/m/K
299.93 K, 26073 kPa	0.09884 W/m/K
300.35 K, 41624 kPa	0.1042 W/m/K
300.35 K, 41629 kPa	0.1044 W/m/K
300.37 K, 33905 kPa	0.1015 W/m/K
300.38 K, 33907 kPa	0.1015 W/m/K
300.4 K, 26067 kPa	0.09874 W/m/K
300.41 K, 26067 kPa	0.09891 W/m/K
301.58 K, 62451 kPa	0.1103 W/m/K
301.58 K, 62455 kPa	0.11 W/m/K
301.59 K, 68041 kPa	0.1115 W/m/K
301.59 K, 68044 kPa	0.1115 W/m/K
301.6 K, 9757 kPa	0.09158 W/m/K
301.61 K, 9755 kPa	0.09136 W/m/K
301.62 K, 52493 kPa	0.1071 W/m/K
301.63 K, 4924 kPa	0.08962 W/m/K
301.63 K, 52493 kPa	0.1066 W/m/K
301.64 K, 4920 kPa	0.089 W/m/K
301.65 K, 27815 kPa	0.0982 W/m/K
301.65 K, 43573 kPa	0.1041 W/m/K
301.65 K, 43574 kPa	0.104 W/m/K
301.66 K, 27823 kPa	0.09824 W/m/K
301.66 K, 35535 kPa	0.1015 W/m/K
301.66 K, 35538 kPa	0.1014 W/m/K
301.67 K, 289 kPa	0.08665 W/m/K
301.67 K, 293 kPa	0.08649 W/m/K
301.69 K, 21591 kPa	0.09669 W/m/K
301.69 K, 21597 kPa	0.09656 W/m/K
301.75 K, 15353 kPa	0.09399 W/m/K
301.75 K, 15355 kPa	0.0941 W/m/K
301.92 K, 62442 kPa	0.11 W/m/K
301.92 K, 62448 kPa	0.1098 W/m/K
301.93 K, 68033 kPa	0.1115 W/m/K
301.93 K, 68038 kPa	0.1117 W/m/K
301.97 K, 52486 kPa	0.1073 W/m/K
301.97 K, 52491 kPa	0.107 W/m/K
301.98 K, 9757 kPa	0.09137 W/m/K
301.99 K, 9759 kPa	0.09137 W/m/K
302 K, 43569 kPa	0.104 W/m/K
302.01 K, 43570 kPa	0.1038 W/m/K
302.02 K, 35523 kPa	0.1016 W/m/K
302.02 K, 35525 kPa	0.1012 W/m/K
302.03 K, 4920 kPa	0.08894 W/m/K
302.03 K, 4923 kPa	0.08935 W/m/K
302.03 K, 27815 kPa	0.09838 W/m/K
302.03 K, 27819 kPa	0.09867 W/m/K
302.07 K, 299 kPa	0.08696 W/m/K
302.07 K, 21586 kPa	0.09614 W/m/K
302.07 K, 21589 kPa	0.09606 W/m/K
302.08 K, 296 kPa	0.0866 W/m/K
302.14 K, 15358 kPa	0.09347 W/m/K
302.14 K, 15361 kPa	0.09381 W/m/K
302.29 K, 62439 kPa	0.1101 W/m/K
302.29 K, 68021 kPa	0.1115 W/m/K
302.3 K, 62445 kPa	0.11 W/m/K
302.3 K, 68022 kPa	0.1116 W/m/K
302.36 K, 52487 kPa	0.1067 W/m/K
302.36 K, 52489 kPa	0.107 W/m/K
302.39 K, 43573 kPa	0.104 W/m/K
